According to patent publication US10513519B2, “Solid forms of (1S,4S)-4-(2-(((3S,4R)-3-fluorotetrahydro-2H-pyran-4-yl)amino)-8-((2,4,6-trichlorophenyl)amino)-9H-purin-9-yl)-1-methylcyclohexane-1-carboxamide and methods of their use” (Signal Pharmaceuticals, LLC, priority 2016, dated 2019):

System: cancer cell lines
Assay: Multiplexed cytotoxicity assay: cell proliferation (relative cell count IC50, GI50)
Assay type: cell-based
Procedure: (§1) Cells are grown in RPMI1640, 10% FBS, 2 mM L-alanyl-L-Glutamine, 1 mM Na pyruvate or a special medium in a humidified atmosphere of 5% CO2 at 37° C. Cells are seeded into 384-well plates and incubated in a humidified atmosphere of 5% CO2 at 37° C. Compounds are added 24 h post cell seeding. At the same time, a time zero untreated cell plate is generated. After a 72 hour incubation period, cells are fixed and stained with fluorescently labeled antibodies and nuclear dye to allow visualization of nuclei, apoptotic cells and mitotic cells. Apoptotic cells are detected using an anti-active caspase-3 antibody. Mitotic cells are detected using an anti phospho-histone-3 antibody. Compounds are serially diluted 3.16-fold and assayed over 10 concentrations in a final assay concentration of 0.1% DMSO from the highest test concentration of 10 μM. Automated fluorescence microscopy was carried out using a Molecular Devices ImageXpress Micro XL high-content imager, and images are collected with a 4× objective.
(§2) Sixteen-bit TIFF images are acquired and analyzed with MetaXpress 5.1.0.41 software. Cell proliferation is measured by the signal intensity of the incorporated nuclear dye. The cell proliferation assay output is referred to as the relative cell count. To determine the cell proliferation end point, the cell proliferation data output is transformed to percentage of control (POC) using the following formula: POC=relative cell count(compound wells)/relative cell count(vehicle wells)×100
(§3) GI50 is the concentration needed to reduce the observed growth by half. This is the concentration that inhibits the growth to the level midway between growth in untreated cells and the number of cells seeded in the well (Time zero value). The IC50 values are calculated using nonlinear regression to fit data to a sigmoidal 4 point, 4 parameter One-Site dose response model, where: y(fit)=A+[(B−A)/(1+((C/x)^D))].
as §1, with “In another experiment, cells were grown” for “Cells are grown”, “Cells were” for “Cells are”, “Compounds were” for “Compounds are”, “plate was” for “plate is”, “cells were” for “cells are”, “images were” for “images are”
as §2, with “images were” for “images are”, “proliferation was” for “proliferation is”, “output was” for “output is”
as §3, with “GI50 refers to” for “GI50 is”, “This corresponds to” for “This is”, “values were” for “values are”

[1] = 72 h, G292CLONEA141B1, Soft Tissue, Osteosarcoma
[2] = 72 h, HOS, Soft Tissue, Osteosarcoma
[3] = 72 h, HS729, Soft Tissue, Sarcoma
[4] = 72 h, HS821T, Soft Tissue, Sarcoma
[5] = 72 h, HS888SK, Soft Tissue, Osteosarcoma
[6] = 72 h, IM9, Hematopoietic and lymphoid, Myeloma
[7] = 72 h, TE125T, Soft Tissue, Sarcoma
[8] = 72 h, U266B1, Hematopoietic and lymphoid, Myeloma
[9] = 72 h, VAESBJ, Soft Tissue, Sarcoma
[10] = BC1 (Hematopoietic and lymphoid, Lymphoma)
[11] = BCP-1, BCP1 (Hematopoietic and lymphoid, Lymphoma)
[12] = BM-1604, 72 h, BM1604, Prostate, 72 h
[13] = CEM/C1, CEMC1 (Hematopoietic and lymphoid, Leukemia)
[14] = CML-T1, CMLT1 (Hematopoietic and lymphoid, Leukemia)
[15] = D341 Med, D341MED (CNS, Medulloblastoma)
[16] = DB (Hematopoietic and lymphoid, Lymphoma)
[17] = EB2 (Hematopoietic and lymphoid, Lymphoma)
[18] = EB3 (Hematopoietic and lymphoid, Lymphoma)
[19] = EM2 (Hematopoietic and lymphoid, Leukemia)
[20] = H9 (Hematopoietic and lymphoid, Lymphoma)

C[C@]1(C(N)=O)CC[C@@H](n2c(Nc3c(Cl)cc(Cl)cc3Cl)nc3cnc(N[C@@H]4CCOC[C@H]4F)nc32)CC1 [Compound 1, cis-4-[2-{[(3S,4R)-3-fluorooxan-4-yl]amino}-8-(2,4,6-trichloroanilino)-9H-purin-9-yl]-1-methylcyclohexane-1-carboxamide]
GI50 (5637 (Bladder)): 6850 nM
IC50 (5637 (Bladder)): 9770 nM
GI50 (72 h, AGS, Stomach): 8.6 nM
IC50 (72 h, AGS, Stomach): 9.8 nM
GI50 [1]: 27.2 nM
IC50 [1]: 49.3 nM
GI50 [2]: 2570 nM
IC50 [2]: 3690 nM
GI50 (72 h, HS229T, Lung, NSCLC): 415 nM
IC50 (72 h, HS229T, Lung, NSCLC): > 10000 nM
GI50 [3]: 540 nM
IC50 [3]: > 10000 nM
GI50 [4]: 169 nM
IC50 [4]: > 10000 nM
GI50 [5]: 111 nM
IC50 [5]: > 10000 nM
GI50 [6]: 91.1 nM
IC50 [6]: 143 nM
GI50 (72 h, JAR, Female GU, Placenta): 3170 nM
IC50 (72 h, JAR, Female GU, Placenta): 3210 nM
GI50 (72 h, KLE, Female GU, Uterus): > 10000 nM
IC50 (72 h, KLE, Female GU, Uterus): > 10000 nM
GI50 (72 h, PA1, Female GU, Ovary): 471 nM
IC50 (72 h, PA1, Female GU, Ovary): 2620 nM
GI50 (72 h, PC3, Prostate): 7820 nM
IC50 (72 h, PC3, Prostate): 8540 nM
GI50 (72 h, RD, Soft Tissue, Sarcoma): 36.7 nM
IC50 (72 h, RD, Soft Tissue, Sarcoma): 44.3 nM
GI50 (72 h, SKPNDW, Stomach): 3600 nM
IC50 (72 h, SKPNDW, Stomach): > 10000 nM
GI50 [7]: 1090 nM
IC50 [7]: > 10000 nM
GI50 (72 h, TT, Endocrine, Thyroid): 86.3 nM
IC50 (72 h, TT, Endocrine, Thyroid): > 10000 nM
GI50 [8]: 13.3 nM
IC50 [8]: 109 nM
GI50 [9]: 336 nM
IC50 [9]: 580 nM
GI50 (A7 (Skin, Melanoma)): 1720 nM
IC50 (A7 (Skin, Melanoma)): 7270 nM
GI50 (A388 (Head and Neck)): 422 nM
IC50 (A388 (Head and Neck)): 1120 nM
GI50 [10]: > 10000 nM
IC50 [10]: > 10000 nM
GI50 [11]: 20.5 nM
IC50 [11]: 79.7 nM
GI50 [12]: 141 nM
IC50 [12]: 401 nM
GI50 (C4I (Female GU, Cervix)): > 10000 nM
IC50 (C4I (Female GU, Cervix)): > 10000 nM
GI50 (C32 (Skin, Melanoma)): 28.9 nM
IC50 (C32 (Skin, Melanoma)): 111 nM
GI50 (C32TG, C32TG (Skin, Melanoma)): 40.8 nM
IC50 (C32TG, C32TG (Skin, Melanoma)): 109 nM
GI50 [13]: > 10000 nM
IC50 [13]: > 10000 nM
GI50 [14]: 149 nM
IC50 [14]: > 10000 nM
GI50 [15]: 10000 nM
IC50 [15]: 21.9 nM
GI50 [16]: 13.1 nM
IC50 [16]: > 10000 nM
GI50 (DKMG (CNS, Glioma)): 20.7 nM
IC50 (DKMG (CNS, Glioma)): 126 nM
GI50 [17]: 389 nM
IC50 [17]: 550 nM
GI50 [18]: 1630 nM
IC50 [18]: 2150 nM
GI50 [19]: 48.1 nM
IC50 [19]: 93.6 nM
GI50 (H4 (CNS, Glioma)): 758 nM
IC50 (H4 (CNS, Glioma)): 943 nM
GI50 [20]: 23.2 nM
IC50 [20]: 39 nM
GI50 (HLE (Liver)): 683 nM
